The record followed here is ChEMBL document CHEMBL4814024, “Microwave assisted regioselective synthesis of quinoline appended triazoles as potent anti-tubercular and antifungal agents via copper (I) catalyzed cycloaddition” (Bioorg Med Chem Lett, 2021).

By MIC is commonly meant the lowest concentration that inhibits growth of the organism. By IC50 is commonly meant the midpoint of a concentration-inhibition curve.

≈ marks a conversion by molar mass, not a printed value.

Series [1] concerns Mycobacterium tuberculosis. Nature of the series: Antimycobacterial activity against Mycobacterium tuberculosis H37Rv ATCC 27294 assessed as reduction in bacterial growth by microplate alamar blue assay. In kind it is functional. Background: Resazurin is reduced to fluorescent resorufin, in cell work by metabolically active cells.
For the next series, the system named is Aspergillus fumigatus. Nature of the series: Antifungal activity against Aspergillus fumigatus. In kind it is functional.
The test system of another series is Aspergillus niger. Nature of the series: Antifungal activity against Aspergillus niger. In kind it is functional.
The next series deals with HEK293. Nature of the series: Cytotoxicity against HEK293 cells by MTT assay. It counts as cell-based. Conditions: Homo sapiens.
The subject of a further series is Candida albicans. Nature of the series: Antifungal activity against Candida albicans. It counts as functional.
The next series concerns Aspergillus flavus. Nature of the series: Antifungal activity against Aspergillus flavus. It counts as functional.
A short description of series [2]: Selectivity index, ratio of IC50 for cytotoxicity against human HEK293 cells to MIC for antimycobacterial activity against Mycobacterium tuberculosis H37Rv ATCC 27294. In kind it is toxicity, cell-based. The settings on record: read-out: Selectivity Index.
In series [3] the test system is Mycobacterium tuberculosis. Nature of the series: Antimycobacterial activity against Mycobacterium tuberculosis H37Rv assessed as reduction in bacterial growth incubated for 5 days by MTT assay. It counts as functional. Conditions: 120 h, time 5 day. Background: Tetrazolium assays rely on reduction of a dye to a coloured formazan, in cell work by metabolically active cells.

Series [4] deals with Mycobacterium tuberculosis. Nature of the series: Antimycobacterial activity against Mycobacterium tuberculosis. It counts as functional.

In the case of `NNC(=O)c1ccncc1` [ISONIAZID], the MIC in series [1] is 1.6 µg/mL (≈ 11.7 µM).
Compound `C[C@@H](N1CCN(c2ccc(-n3cnnn3)cc2)C1=O)[C@](O)(Cn1cncn1)c1ccc(F)cc1F` displayed an MIC in the series on Aspergillus fumigatus of 1 µg/mL (≈ 2.08 µM).
For the compound `COc1ccc(-n2ncn(Cc3cn(Cc4cc5ccccc5nc4Cl)nn3)c2=O)cc1`, the minimum inhibitory concentration (MIC) in the series on Aspergillus fumigatus amounted to 3.12 µg/mL (≈ 6.97 µM); against Aspergillus niger, 0.2 µg/mL (≈ 0.447 µM); in series [1], 12.5 µg/mL (≈ 27.9 µM); against Candida albicans it was 0.2 µg/mL (≈ 0.447 µM); against Aspergillus flavus, 0.2 µg/mL (≈ 0.447 µM). The same compound displayed an IC50 in the series with HEK293 of 958 µg/mL (≈ 2140 µM). Also, in [2], the selectivity ratio stood at 76.7.
Take `Cc1ccc2nc(Cl)c(Cn3cc(Cn4cnn(-c5ccccc5)c4=O)nn3)cc2c1`: the MIC against Aspergillus fumigatus came out at 3.12 µg/mL (≈ 7.22 µM); against Aspergillus niger, 0.2 µg/mL (≈ 0.463 µM); in [1], 3.12 µg/mL (≈ 7.22 µM); in the series on Candida albicans it was 0.2 µg/mL (≈ 0.463 µM); in the series on Aspergillus flavus, 0.2 µg/mL (≈ 0.463 µM). For the same compound, the half-inhibitory concentration (IC50) in the series with HEK293 came to 478 µg/mL (≈ 1110 µM). Also, the selectivity ratio in [2] worked out at 153.
As for `COc1ccc(-n2ncn(Cc3cn(Cc4cc5cc(C)ccc5nc4Cl)nn3)c2=O)cc1`, the minimal inhibitory concentration (MIC) with Aspergillus fumigatus was 3.12 µg/mL (≈ 6.75 µM); against Aspergillus niger, 0.2 µg/mL (≈ 0.433 µM); in [1], 1.6 µg/mL (≈ 3.46 µM); against Candida albicans it was 0.2 µg/mL (≈ 0.433 µM); against Aspergillus flavus, 0.2 µg/mL (≈ 0.433 µM). The same compound gave a concentration for half-maximal inhibition (IC50) in the series on HEK293 of 615 µg/mL (≈ 1330 µM). Besides, the selectivity ratio in series [2] turned out to be 384.
For `COc1ccc2cc(Cn3cc(Cn4cnn(-c5ccccc5)c4=O)nn3)c(Cl)nc2c1`, the minimal inhibitory concentration (MIC) against Aspergillus fumigatus was 3.12 µg/mL (≈ 6.97 µM); with Aspergillus niger it was 0.2 µg/mL (≈ 0.447 µM); in [1] it was 1.6 µg/mL (≈ 3.57 µM); against Candida albicans it was 0.2 µg/mL (≈ 0.447 µM); with Aspergillus flavus, 0.2 µg/mL (≈ 0.447 µM). The concentration for half-maximal inhibition (IC50) with HEK293 is 1010 µg/mL (≈ 2250 µM). Besides, in series [2], the selectivity ratio came out at 630.
On to `O=c1n(Cc2cn(Cc3cc4cc(Br)ccc4nc3Cl)nn2)cnn1-c1ccccc1`, for which the MIC in the series on Aspergillus fumigatus came out at 3.12 µg/mL (≈ 6.28 µM); in the series on Aspergillus niger it was 0.2 µg/mL (≈ 0.403 µM); in series [1], 25 µg/mL (≈ 50.3 µM); in the series on Candida albicans, 0.2 µg/mL (≈ 0.403 µM); with Aspergillus flavus it was 0.2 µg/mL (≈ 0.403 µM). This compound had a half-maximal inhibitory concentration (IC50) in the series on HEK293 of 1650 µg/mL (≈ 3330 µM). The selectivity ratio in series [2] was 66.1.
For the compound `OC(Cn1cncn1)(Cn1cncn1)c1ccc(F)cc1F` [FLUCONAZOLE], the minimal inhibitory concentration (MIC) against Aspergillus niger, against Candida albicans and against Aspergillus flavus was 25 µg/mL (≈ 81.6 µM) each time.
In the case of `Cc1cccc2cc(Cn3cc(Cn4cnn(-c5ccccc5)c4=O)nn3)c(Cl)nc12`, the MIC in the series on Aspergillus fumigatus amounted to 3.12 µg/mL (≈ 7.22 µM); with Aspergillus niger it was 0.2 µg/mL (≈ 0.463 µM); in series [1], 1.6 µg/mL (≈ 3.7 µM); in the series on Candida albicans, 0.2 µg/mL (≈ 0.463 µM); in the series with Aspergillus flavus it was 0.2 µg/mL (≈ 0.463 µM). Also, the half-maximal inhibitory concentration (IC50) in the series with HEK293 was 729 µg/mL (≈ 1690 µM). Moreover, in [2], the selectivity ratio was determined as 234.
On to `O=C(O)c1cn(C2CC2)c2cc(N3CCNCC3)c(F)cc2c1=O` [CIPROFLOXACIN], for which, in series [1], the minimum inhibitory concentration (MIC) was 3.12 µg/mL (≈ 9.42 µM).
Consider `O=c1n(Cc2cn(Cc3cc4ccc(Cl)cc4nc3Cl)nn2)cnn1-c1ccccc1`, for which the MIC in the series on Aspergillus fumigatus turned out to be 3.12 µg/mL (≈ 6.9 µM); against Aspergillus niger, 0.2 µg/mL (≈ 0.442 µM); in series [1], 25 µg/mL (≈ 55.3 µM); in the series with Candida albicans, 0.2 µg/mL (≈ 0.442 µM); against Aspergillus flavus, 0.2 µg/mL (≈ 0.442 µM). In the series with HEK293, the IC50 was determined as 869 µg/mL (≈ 1920 µM). In addition, the selectivity ratio in [2] was determined as 34.8.
For `O=c1n(Cc2cn(Cc3cc4cc(Cl)ccc4nc3Cl)nn2)cnn1-c1ccccc1`, the minimum inhibitory concentration (MIC) stood at 3.12 µg/mL (≈ 6.9 µM) with Aspergillus fumigatus; 0.2 µg/mL (≈ 0.442 µM) in the series on Aspergillus niger; 12.5 µg/mL (≈ 27.6 µM) in series [1]; 0.2 µg/mL (≈ 0.442 µM) with Candida albicans; 0.2 µg/mL (≈ 0.442 µM) against Aspergillus flavus. Besides, the IC50 in the series on HEK293 worked out at 459 µg/mL (≈ 1010 µM). Further, the selectivity ratio in [2] worked out at 36.7.
Regarding `COc1ccc(-n2ncn(Cc3cn(Cc4cc5cc(Br)ccc5nc4Cl)nn3)c2=O)cc1`, the minimal inhibitory concentration (MIC) in the series with Aspergillus fumigatus came out at 3.12 µg/mL (≈ 5.92 µM); in the series on Aspergillus niger, 0.2 µg/mL (≈ 0.38 µM); in [1], 6.25 µg/mL (≈ 11.9 µM); in the series on Candida albicans, 0.2 µg/mL (≈ 0.38 µM); in the series with Aspergillus flavus, 0.2 µg/mL (≈ 0.38 µM). For the same compound, the IC50 in the series on HEK293 stood at 333 µg/mL (≈ 632 µM). In addition, the selectivity ratio in [2] was determined as 53.2.
With `O=c1n(Cc2cn(Cc3cc4ccccc4nc3Cl)nn2)cnn1-c1ccccc1`, the minimal inhibitory concentration (MIC) with Aspergillus fumigatus was found to be 3.12 µg/mL (≈ 7.47 µM); in the series on Aspergillus niger, 0.2 µg/mL (≈ 0.479 µM); in series [1], 25 µg/mL (≈ 59.8 µM); in the series on Candida albicans it was 0.2 µg/mL (≈ 0.479 µM); against Aspergillus flavus, 0.2 µg/mL (≈ 0.479 µM). For the same compound, in the series with HEK293, it took 655 µg/mL (≈ 1570 µM) to reach half-maximal inhibition (IC50). Also, in series [2], the selectivity ratio came out at 26.2.
For `COc1ccc(-n2ncn(Cc3cn(Cc4cc5ccc(Cl)cc5nc4Cl)nn3)c2=O)cc1`, the minimal inhibitory concentration (MIC) was found to be 3.12 µg/mL (≈ 6.47 µM) with Aspergillus fumigatus; 0.2 µg/mL (≈ 0.415 µM) in the series with Aspergillus niger; 3.12 µg/mL (≈ 6.47 µM) in series [1]; 0.2 µg/mL (≈ 0.415 µM) in the series on Candida albicans; 0.2 µg/mL (≈ 0.415 µM) against Aspergillus flavus. The concentration for half-maximal inhibition (IC50) with HEK293 amounted to 1460 µg/mL (≈ 3040 µM). The selectivity ratio in [2] is 470.
For `COc1ccc(-n2ncn(Cc3cn(Cc4cc5cc(Cl)ccc5nc4Cl)nn3)c2=O)cc1`, the minimum inhibitory concentration (MIC) stood at 3.12 µg/mL (≈ 6.47 µM) against Aspergillus fumigatus; 0.2 µg/mL (≈ 0.415 µM) against Aspergillus niger; 3.12 µg/mL (≈ 6.47 µM) in series [1]; 0.2 µg/mL (≈ 0.415 µM) in the series with Candida albicans; 0.2 µg/mL (≈ 0.415 µM) in the series with Aspergillus flavus. The compound further displayed an IC50 in the series on HEK293 of 1060 µg/mL (≈ 2200 µM). Besides, the selectivity ratio in series [2] worked out at 340.
For the compound `COc1ccc(-n2ncn(Cc3cn(Cc4cc5cccc(C)c5nc4Cl)nn3)c2=O)cc1`, the MIC is 3.12 µg/mL (≈ 6.75 µM) with Aspergillus fumigatus; 0.2 µg/mL (≈ 0.433 µM) in the series on Aspergillus niger; 1.6 µg/mL (≈ 3.46 µM) in [1]; 0.2 µg/mL (≈ 0.433 µM) in the series on Candida albicans; 0.2 µg/mL (≈ 0.433 µM) against Aspergillus flavus. In the series on HEK293, this compound returned an IC50 of 586 µg/mL (≈ 1270 µM). The selectivity ratio in series [2] came to 366.
Regarding `CCCCCCCCc1cn(CC(=O)OCC)nn1`, the minimum inhibitory concentration (MIC) in [3] was found to be 0.5 µg/mL (≈ 1.87 µM).
In series [4], `O=C(N/N=C/c1cn(-c2ccc(Cl)cc2)nn1)c1ccncc1` displayed an MIC of 0.62 µg/mL (≈ 1.9 µM).
Consider `NC(=O)c1cnccn1` [PYRAZINAMIDE], for which, in [1], the minimum inhibitory concentration (MIC) stood at 6.25 µg/mL (≈ 50.8 µM).
